PubChem BioAssay AID248 (DTP/NCI, 2004)
“And” between values parts separate entries of the source, which are not always exact repeats. Identical values can stand only once. Toxic doses and inconclusive results are not listed. Rule as the data show it: active = T/C of 150% or more; inactive = T/C below 125%.

Test system: L1210 leukemia ip in BDF1 mice, survival T/C
Assay: NCI In Vivo Anticancer Drug Screen. Data for tumor model L1210 Leukemia (intraperitoneal) in B6D2F1 (BDF1) mice
Conditions: endpoint: mean survival time, higher = longer survival
Method in brief: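 Transplantable tumor model; survival measured in treated vs vehicle control mice. Value = treated/control.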

[1] = dose: 12.5 mg/kg/injection, schedule: Q01DX009 (ip), vehicle: saline with Tween-80
[2] = dose: 25.0 mg/kg/injection, schedule: Q01DX009 (ip), vehicle: saline with Tween-80
[3] = dose: 100.0 mg/kg/injection, schedule: Q01DX009 (ip), vehicle: saline with Tween-80
[4] = dose: 200.0 mg/kg/injection, schedule: Q01DX009 (ip), vehicle: saline with Tween-80
[5] = dose: 400.0 mg/kg/injection, schedule: Q01DX009 (ip), vehicle: saline with Tween-80
[6] = dose: 100.0 mg/kg/injection, schedule: Q01DX001 (ip), vehicle: saline
[7] = dose: 100.0 mg/kg/injection, schedule: Q04DX003 (ip), vehicle: saline
[8] = dose: 200.0 mg/kg/injection, schedule: Q04DX003 (ip), vehicle: saline
[9] = dose: 400.0 mg/kg/injection, schedule: Q04DX003 (ip), vehicle: saline

Measured: T/C

Nc1nc2ncc(CNc3ccc(C(=O)NC(CCC(=O)O)C(=O)O)cc3)nc2c(=O)[nH]1 (stereo unspecified)
inactive: dose: 1.6 mg/kg/injection, schedule: Q01DX009 (ip), vehicle: saline with Tween-80 93 % of control and 98 % of control | dose: 3.2 mg/kg/injection, schedule: Q01DX009 (ip), vehicle: saline with Tween-80 101 % of control and 109 % of control | dose: 6.3 mg/kg/injection, schedule: Q01DX009 (ip), vehicle: saline with Tween-80 93 % of control and 94 % of control | dose: 6.95 mg/kg/injection, schedule: Q01DX Z (ip), vehicle: carboxymethylcellulose (CMC) 96 % of control | [1] 101 % of control and 102 % of control | dose: 12.5 mg/kg/injection, schedule: Q04DX002 (ip), vehicle: saline with Tween-80 97 % of control and 100 % of control | dose: 13.9 mg/kg/injection, schedule: Q01DX Z (ip), vehicle: carboxymethylcellulose (CMC) 103 % of control | [2] 93 % of control and 100 % of control | dose: 25.0 mg/kg/injection, schedule: Q04DX002 (ip), vehicle: saline with Tween-80 97 % of control and 91 % of control | dose: 27.8 mg/kg/injection, schedule: Q01DX Z (ip), vehicle: carboxymethylcellulose (CMC) 101 % of control | dose: 50.0 mg/kg/injection, schedule: Q01DX009 (ip), vehicle: saline with Tween-80 98 % of control and 111 % of control | dose: 50.0 mg/kg/injection, schedule: Q04DX002 (ip), vehicle: saline with Tween-80 99 % of control and 100 % of control | dose: 55.6 mg/kg/injection, schedule: Q01DX Z (ip), vehicle: carboxymethylcellulose (CMC) 97 % of control | dose: 100.0 mg/kg/injection, schedule: Q04DX002 (ip), vehicle: saline with Tween-80 99 % of control and 102 % of control | dose: 200.0 mg/kg/injection, schedule: Q04DX002 (ip), vehicle: saline with Tween-80 103 % of control

ClC1=C(Cl)C(Cl)(Cl)C2C1C1C(Cl)=C(Cl)C(Cl)(Cl)C1C1C2C(Cl)=C(Cl)C1(Cl)Cl (stereo unspecified)
inactive: dose: 100.0 mg/kg/injection, schedule: Q01DX001 (ip), vehicle: gum acacia 95 % of control | dose: 100.0 mg/kg/injection, schedule: Q01DX009 (ip), vehicle: gum acacia 92 % of control | dose: 200.0 mg/kg/injection, schedule: Q01DX001 (ip), vehicle: gum acacia 88 % of control | dose: 200.0 mg/kg/injection, schedule: Q01DX009 (ip), vehicle: gum acacia 94 % of control | dose: 400.0 mg/kg/injection, schedule: Q01DX001 (ip), vehicle: gum acacia 92 % of control | dose: 400.0 mg/kg/injection, schedule: Q01DX009 (ip), vehicle: gum acacia 93 % of control

CC(=O)Oc1ccc(OC(C)=O)c2c1C(=O)CCCC2=O
inactive: [3] 101 % of control | dose: 100.0 mg/kg/injection, schedule: Q04DX003 (ip), vehicle: saline with Tween-80 91 % of control | [4] 93 % of control | dose: 200.0 mg/kg/injection, schedule: Q04DX003 (ip), vehicle: saline with Tween-80 91 % of control | [5] 96 % of control | dose: 400.0 mg/kg/injection, schedule: Q04DX003 (ip), vehicle: saline with Tween-80 96 % of control

CCCCNC(C)(C)CCl
inactive: dose: 25.0 mg/kg/injection, schedule: Q01DX009 (ip), vehicle: saline 103 % of control | dose: 25.0 mg/kg/injection, schedule: Q04DX003 (ip), vehicle: water 110 % of control | dose: 50.0 mg/kg/injection, schedule: Q01DX009 (ip), vehicle: saline 102 % of control | dose: 50.0 mg/kg/injection, schedule: Q01DX009 (ip), vehicle: water 91 % of control | dose: 50.0 mg/kg/injection, schedule: Q04DX003 (ip), vehicle: water 116 % of control | [6] 104 % of control | dose: 100.0 mg/kg/injection, schedule: Q04DX003 (ip), vehicle: water 98 % of control and 102 % of control

C=CCNC(=O)N(CC)C(=NCC)c1ccc(NC(=O)c2ccc(C(=O)Nc3ccc(C(=NCC)N(CC)C(=O)NCC=C)cc3)cc2)cc1
inactive: dose: 3.87 mg/kg/injection, schedule: Q01DX015 (ip), vehicle: methylcellulose (MC) 104 % of control

CC(=O)NN
inactive: [6] 104 % of control

COc1c(Cl)cc2c(c1OC)N(C)C1N3C(=O)C4(C)SSC3(CC21O)C(=O)N4C (stereo unspecified)
inactive: dose: 0.12 mg/kg/injection, schedule: Q01DX009 (ip), vehicle: Klucel (hydroxypropylcellulose) (HPC) 100 % of control | dose: 0.25 mg/kg/injection, schedule: Q01DX009 (ip), vehicle: Klucel (hydroxypropylcellulose) (HPC) 101 % of control | dose: 0.5 mg/kg/injection, schedule: Q01DX009 (ip), vehicle: Klucel (hydroxypropylcellulose) (HPC) 108 % of control | dose: 1.0 mg/kg/injection, schedule: Q01DX009 (ip), vehicle: Klucel (hydroxypropylcellulose) (HPC) 111 % of control

Nc1cc(=O)[nH][nH]1
inactive: dose: 100.0 mg/kg/injection, schedule: Q01DX009 (ip), vehicle: saline 98 % of control | [7] 102 % of control | dose: 200.0 mg/kg/injection, schedule: Q01DX009 (ip), vehicle: saline 106 % of control | dose: 200.0 mg/kg/injection, schedule: Q01DX Z (ip), vehicle: carboxymethylcellulose (CMC) 115 % of control | dose: 200.0 mg/kg/injection, schedule: Q01DX Z (ip), vehicle: saline 115 % of control | [8] 107 % of control | dose: 300.0 mg/kg/injection, schedule: Q01DX Z (ip), vehicle: carboxymethylcellulose (CMC) 115 % of control | dose: 300.0 mg/kg/injection, schedule: Q01DX Z (ip), vehicle: saline 123 % of control | dose: 400.0 mg/kg/injection, schedule: Q01DX009 (ip), vehicle: saline 120 % of control | [9] 105 % of control | dose: 450.0 mg/kg/injection, schedule: Q01DX Z (ip), vehicle: carboxymethylcellulose (CMC) 121 % of control | dose: 675.0 mg/kg/injection, schedule: Q01DX Z (ip), vehicle: saline 112 % of control

CC(C)=CC1CC(C)C2(CCC3(C)CC4C(C(=O)CC4(C)O)/C(C=O)=C\CC32)O1 (stereo unspecified)
inactive: dose: 5.0 mg/kg/injection, schedule: Q01DX001 (ip), vehicle: saline 103 % of control | dose: 10.0 mg/kg/injection, schedule: Q01DX001 (ip), vehicle: saline 97 % of control | dose: 20.0 mg/kg/injection, schedule: Q01DX001 (ip), vehicle: saline 97 % of control | dose: 40.0 mg/kg/injection, schedule: Q01DX001 (ip), vehicle: saline 97 % of control | dose: 80.0 mg/kg/injection, schedule: Q01DX001 (ip), vehicle: saline 109 % of control

O=c1n(-c2ccccc2)c(=O)n2n1C1/C=C\C=C/C2C2CCC21 (stereo unspecified)
inactive: [1] 92 % of control | dose: 12.5 mg/kg/injection, schedule: Q04DX003 (ip), vehicle: saline with Tween-80 100 % of control | [2] 95 % of control | dose: 25.0 mg/kg/injection, schedule: Q04DX003 (ip), vehicle: saline with Tween-80 95 % of control | dose: 50.0 mg/kg/injection, schedule: Q04DX003 (ip), vehicle: saline with Tween-80 87 % of control

Nc1ccc(S(=O)(=O)F)cc1N
inactive: dose: 100.0 mg/kg/injection, schedule: Q01DX001 (ip), vehicle: acetone 101 % of control | dose: 100.0 mg/kg/injection, schedule: Q01DX009 (ip), vehicle: acetone 96 % of control | dose: 200.0 mg/kg/injection, schedule: Q01DX001 (ip), vehicle: acetone 101 % of control | dose: 200.0 mg/kg/injection, schedule: Q01DX009 (ip), vehicle: acetone 93 % of control | dose: 400.0 mg/kg/injection, schedule: Q01DX001 (ip), vehicle: acetone 103 % of control

COC(=O)c1cc(C(=O)OC)c(C(=O)OC)cc1C(=O)OC
inactive: [3] 101 % of control | [4] 98 % of control | [5] 98 % of control

CCOC(=O)C1CCCNC1=O (stereo unspecified)
inactive: [7] 105 % of control | [8] 116 % of control | [9] 108 % of control

OCC1OC(n2cnc3c(SCc4ccccn4)ncnc32)C(O)C1O (stereo unspecified)
inactive: [6] 101 % of control | dose: 200.0 mg/kg/injection, schedule: Q01DX001 (ip), vehicle: saline 113 % of control | dose: 400.0 mg/kg/injection, schedule: Q01DX001 (ip), vehicle: saline 115 % of control

Nc1cccc(OCCCCCOc2cccc(N)c2)c1
inactive: dose: 100.0 mg/kg/injection, schedule: Q01DX009 (ip), vehicle: Klucel (hydroxypropylcellulose) (HPC) 93 % of control | dose: 200.0 mg/kg/injection, schedule: Q01DX009 (ip), vehicle: Klucel (hydroxypropylcellulose) (HPC) 96 % of control

O=C(c1ccccc1)C1CCC(C(=O)c2ccccc2)C1=O (stereo unspecified)
inactive: dose: 100.0 mg/kg/injection, schedule: Q01DX001 (ip), vehicle: carboxymethylcellulose (CMC) 98 % of control | dose: 200.0 mg/kg/injection, schedule: Q01DX001 (ip), vehicle: carboxymethylcellulose (CMC) 98 % of control | dose: 400.0 mg/kg/injection, schedule: Q01DX001 (ip), vehicle: carboxymethylcellulose (CMC) 98 % of control
